Assays:
A2780 [1] = test: Antiproliferative activity against human A2780 cells in lipid reduced medium in absence of palmitate; assay type: functional, cell-based
A2780 [2] = test: Antiproliferative activity against human A2780 cells in lipid reduced medium in presence of palmitate; assay type: functional, cell-based
LNCaP = test: Antiproliferative activity against human LNCAP cells in lipid reduced medium; assay type: functional, cell-based
Fatty acid synthase = Fatty acid synthase (Homo sapiens, UniProt P49327); test: Inhibition of fatty acid synthase keto-reductase domain (unknown origin)
Fatty acid synthase, sequence (P49327 whole entry, the tested form may be a part): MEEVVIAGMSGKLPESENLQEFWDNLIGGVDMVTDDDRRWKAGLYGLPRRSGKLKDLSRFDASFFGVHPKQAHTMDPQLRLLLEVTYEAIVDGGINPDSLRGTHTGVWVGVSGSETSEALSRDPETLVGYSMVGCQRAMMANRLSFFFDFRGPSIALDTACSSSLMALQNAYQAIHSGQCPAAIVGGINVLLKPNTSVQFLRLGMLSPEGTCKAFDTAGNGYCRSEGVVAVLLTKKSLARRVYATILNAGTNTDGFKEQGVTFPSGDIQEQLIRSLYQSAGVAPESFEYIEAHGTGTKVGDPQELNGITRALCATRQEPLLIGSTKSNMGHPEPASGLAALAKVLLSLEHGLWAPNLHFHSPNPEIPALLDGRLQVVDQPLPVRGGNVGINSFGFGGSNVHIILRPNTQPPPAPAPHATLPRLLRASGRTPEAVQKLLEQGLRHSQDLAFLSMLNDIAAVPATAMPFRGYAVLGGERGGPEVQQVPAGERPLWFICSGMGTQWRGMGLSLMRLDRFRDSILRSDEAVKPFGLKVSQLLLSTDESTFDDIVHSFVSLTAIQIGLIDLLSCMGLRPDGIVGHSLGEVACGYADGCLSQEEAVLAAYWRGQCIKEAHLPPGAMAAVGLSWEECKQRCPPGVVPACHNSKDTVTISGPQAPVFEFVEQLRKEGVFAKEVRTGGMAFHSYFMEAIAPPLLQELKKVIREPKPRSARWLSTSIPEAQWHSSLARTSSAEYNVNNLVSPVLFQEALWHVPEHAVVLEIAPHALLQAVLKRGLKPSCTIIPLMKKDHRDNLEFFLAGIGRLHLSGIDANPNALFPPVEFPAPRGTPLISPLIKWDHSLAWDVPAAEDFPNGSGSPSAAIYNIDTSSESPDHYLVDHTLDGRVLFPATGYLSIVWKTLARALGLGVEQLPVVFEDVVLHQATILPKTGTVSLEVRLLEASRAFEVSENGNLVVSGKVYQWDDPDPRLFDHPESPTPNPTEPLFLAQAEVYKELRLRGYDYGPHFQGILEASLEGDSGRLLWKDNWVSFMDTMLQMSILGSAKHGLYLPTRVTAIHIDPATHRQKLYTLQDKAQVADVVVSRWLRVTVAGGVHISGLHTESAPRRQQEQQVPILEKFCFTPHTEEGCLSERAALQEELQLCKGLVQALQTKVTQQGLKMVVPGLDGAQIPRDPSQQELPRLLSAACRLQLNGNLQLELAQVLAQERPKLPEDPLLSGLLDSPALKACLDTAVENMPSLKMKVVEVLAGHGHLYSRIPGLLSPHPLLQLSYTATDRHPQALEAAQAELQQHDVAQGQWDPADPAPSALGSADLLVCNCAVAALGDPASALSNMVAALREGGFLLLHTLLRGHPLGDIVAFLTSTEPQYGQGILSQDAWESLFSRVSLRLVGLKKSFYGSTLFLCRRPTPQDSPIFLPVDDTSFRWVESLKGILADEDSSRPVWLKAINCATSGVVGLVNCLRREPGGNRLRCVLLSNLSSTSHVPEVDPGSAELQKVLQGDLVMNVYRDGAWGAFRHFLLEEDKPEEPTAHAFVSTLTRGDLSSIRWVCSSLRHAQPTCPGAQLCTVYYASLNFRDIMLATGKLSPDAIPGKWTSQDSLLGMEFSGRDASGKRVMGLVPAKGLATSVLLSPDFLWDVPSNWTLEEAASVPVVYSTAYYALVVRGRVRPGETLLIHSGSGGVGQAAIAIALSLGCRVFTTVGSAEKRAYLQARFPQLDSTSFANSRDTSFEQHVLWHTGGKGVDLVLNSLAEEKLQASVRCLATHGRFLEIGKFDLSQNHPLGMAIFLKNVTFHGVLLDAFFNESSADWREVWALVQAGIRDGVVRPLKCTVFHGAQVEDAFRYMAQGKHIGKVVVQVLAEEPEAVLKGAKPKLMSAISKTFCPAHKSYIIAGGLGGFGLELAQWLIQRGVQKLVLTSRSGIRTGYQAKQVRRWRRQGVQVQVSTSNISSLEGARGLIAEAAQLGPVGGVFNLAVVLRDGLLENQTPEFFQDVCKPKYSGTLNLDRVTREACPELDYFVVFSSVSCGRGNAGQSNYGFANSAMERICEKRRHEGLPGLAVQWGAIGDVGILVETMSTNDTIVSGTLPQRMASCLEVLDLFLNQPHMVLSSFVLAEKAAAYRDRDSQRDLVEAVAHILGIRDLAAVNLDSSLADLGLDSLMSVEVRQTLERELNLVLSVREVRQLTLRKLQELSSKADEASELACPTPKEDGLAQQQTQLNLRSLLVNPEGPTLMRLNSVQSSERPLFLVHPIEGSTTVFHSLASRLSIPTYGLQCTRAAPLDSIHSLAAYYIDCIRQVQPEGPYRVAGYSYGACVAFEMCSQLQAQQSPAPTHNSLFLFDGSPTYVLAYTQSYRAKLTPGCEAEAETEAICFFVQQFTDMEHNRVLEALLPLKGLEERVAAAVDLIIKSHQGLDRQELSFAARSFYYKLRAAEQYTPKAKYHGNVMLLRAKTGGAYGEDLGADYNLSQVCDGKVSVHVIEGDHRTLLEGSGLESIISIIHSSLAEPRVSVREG

PC-3M = test: Antiproliferative activity against human PC3M cells expressing Luc-C6 in lipid reduced medium; assay type: functional, cell-based

SMILES	IC50 (A2780 [1])	IC50 (A2780 [2])	IC50 (LNCaP)	IC50 (Fatty acid synthase)	IC50 (PC-3M)
Cn1cc(-c2ccc(-c3ccc(C4=NC(C)(C)C(=O)N4C[C@@H]4CCN(C(=O)C5(O)CC5)C4)c(F)c3)cc2)cn1	5.37 nM	> 10000 nM	–	–	–
CC1(C)N=C(c2ccc(-c3ccc4[nH]ccc4c3)cc2)N(C[C@@H]2CCN(C(=O)C3CC3)C2)C1=O	74.1 nM	> 10000 nM	–	–	–
CC1(C)N=C(c2ccc(-c3ccc4cccnc4c3)cc2)N(C[C@@H]2CCN(C(=O)C3CC3)C2)C1=O	75.9 nM	> 10000 nM	219 nM	56.2 nM	53.7 nM
CC1(C)N=C(c2ccc(-c3ccc4cccc(F)c4c3)cc2)N(CC2CN(C(=O)C3CC3)C2)C1=O	468 nM	5620 nM	2040 nM	–	–
Cn1ncc2cc(-c3ccc(C4=NC(C)(C)C(=O)N4C[C@@H]4CCN(C(=O)C5CC5)C4)c(F)c3)ccc21	–	–	724 nM	–	132 nM
CC1(C)N=C(c2ccc(-c3nc4ccccc4[nH]3)cc2)N(C[C@@H]2CCN(C(=O)C3CC3)C2)C1=O	9330 nM	> 10000 nM	–	–	–
